Test results taken from patent US20240252668A1, “ANTIBODY DRUG CONJUGATES AND METHODS FOR MAKING THEREOF” (Novartis AG, priority 2021, published 2024).
Read-outs that look alike come from different tables or passages of the source. Starred links: 1 amine or outer side, 2 acyl side, 3 side chain; linkers in the order of their positions; H or OH if unused. Positions of bridges follow the written chain, without caps; N, C: chain ends. Non-standard residues stand in square brackets, D forms with d. Residues, ends and D or L forms follow the SMILES beside them. *: point of attachment. Leu(3R-OH,Nα-propionyl) = CCC(=O)N[C@H](C(=O)*)[C@H](O)C(C)C; X1 = CC(C)[C@@H](O[*:3])[C@H](N[*:1])C(=O)[*:2]; NMeT = CN[C@H](C(=O)O)[C@@H](C)O; dPhLac = O=C(O)[C@H](O)Cc1ccccc1; NMeA = CN[C@@H](C)C(=O)O; NMeDha = C=C(NC)C(=O)O

Experiments:
[1] = EPSA determination by supercritical fluid chromatography; assay type: physicochemical; conditions: supercritical fluid chromatography, Chirex 3014 column; modified EPSA method, SFC; read-out: EPSA
In short: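 SFC on a Chirex 3014 column ([…], 3×100 mm, 100 Å). Gradient runs linearly from 5% to 60% methanol containing 20 mM ammonium formate, in scCO2, over 4.5 min.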

[2] = Plasma incubation of compound (A1), cynomolgus monkey plasma; assay type: in vitro ADME
Experimental: (§1) Plasma incubations and sample preparation: Compound (A1) was spiked at 5.00 μg/mL in PBS and pooled mixed gender mouse (CD-1), cynomolgus monkey and human plasma. Samples were incubated on a Thermomixer (Eppendorf) at 37° C. while shaking at 650 rpm. Aliquots of 50 μL (n=3) were drawn from each incubation tube following 0, 0.5, 1, 2, 4, 8 and 24 h of incubation. 50 μL of sample was quenched with 200 μL of acetonitrile, containing both generic internal standards, glybenclamide and warfarin, at 62.5 ng/mL. Samples were briefly vortexed and centrifuged for 20 min at 4000 rpm and 4° C. 200 μL of the supernatant was transferred into a clean 800 μL 96-well sample collection plate.
(§2) Quantification by LC-MS/MS: LC-MS/MS analysis was conducted with a Shimadzu Nexera UPLC coupled to AB Sciex QTRAP 6500 using the SRM acquisition mode (3 μL injected). Samples were analyzed using a ACE 3° C.18-PFP (3 μM, 2.1×50 mm column) at a column temperature of 65° C. […] Quantification of compound (A1) and 5 was performed by MS-MRM (electrospray in positive mode, ion spray voltage: 5000 V, source temperature: 500° C., curtain gas: 25 psig, nebulizer gas: 60 psig, turbo ion spray gas: 40 psig, mass range: low, resolution Q1/Q3: unit, collision gas: medium, dwell time: 12 msec). […] Peak integration and quantification was conducted with the AB Sciex Analyst software (v.1.7) using the Analyst Classic algorithm.

[3] = tested on: SK-MEL-30 skin melanoma cell line (heterozygous NRAS Q61K); assay: Cell proliferation assay (resazurin cell viability), SK-MEL-30 cell line; assay type: cell-based; conditions: Homo sapiens
In short: (§3)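 Cells seeded the night before, then treated 96 h at 37 °C in RPMI/10% FCS (A375 in DMEM/10% FCS); compounds 260 nM to 0.036 nM in ⅓ dilution steps, one compound 10000 nM to 1.52 nM. Viability read by resazurin addition after 96 h.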

[4] = Plasma incubation of compound (A1), human plasma, LC-MS/MS quantification; assay type: in vitro ADME; conditions: human plasma, 37° C.
Experimental: as §1
Quantification by LC-MS/MS: LC-MS/MS analysis was conducted with a Shimadzu Nexera UPLC coupled to AB Sciex QTRAP 6500 using the SRM acquisition mode (3 μL injected). Samples were analyzed using a ACE 3° C.18-PFP (3 μM, 2.1×50 mm column) at a column temperature of 65° C. The starting conditions were 97% H20 containing 0.1% formic acid and 3% CH3CN containing 0.1% formic acid. Quantification of compound (A1) and 5 was performed by MS-MRM (electrospray in positive mode, ion spray voltage: 5000 V, source temperature: 500° C., curtain gas: 25 psig, nebulizer gas: 60 psig, turbo ion spray gas: 40 psig, mass range: low, resolution Q1/Q3: unit, collision gas: medium, dwell time: 12 msec). Separate calibration curves were established with calibration standards of compounds (A1) and 5 at concentrations of 10.0, 5.00, 2.50, 1.00, 0.500, 0.100, 0.050 and 0.010 μg/mL respectively. Peak integration and quantification was conducted with the AB Sciex Analyst software (v.1.7) using the Analyst Classic algorithm. […]

[5] = Plasma incubation of compound (A1), mouse (CD-1) plasma; assay type: in vitro ADME
Experimental: as §1, §2

[6] = tested on: 92.1 uveal melanoma cell line (heterozygous GNAQ Q209L); assay: Cell proliferation assay (resazurin cell viability), 92.1 cell line; assay type: cell-based
In short: as §3

C=C1C(=O)N[C@@H](C)C(=O)N(C)[C@@H](C)C(=O)N[C@@H]([C@H](OC(=O)[C@@H](NC(=O)CC)[C@H](O)C(C)C)C(C)C)C(=O)N(C)[C@@H]([C@@H](C)OC)C(=O)O[C@H](C(C)C)[C@H](NC(C)=O)C(=O)O[C@H](Cc2ccccc2)C(=O)N1C [Compound (A1), FR900359] (Ac-[X1][dPhLac][NMeDha]A[NMeA][X1](Leu(3R-OH,Nα-propionyl))[NMeT](Me); ester 1-C)
EPSA [1]: 94 A^2
plasma stability / metabolite formation compared with human plasma [2]: Very similar results
GI50 ([3]; SK-MEL-30 (GNAQ/11 wild type), 96 hours of treatment, read-out: GI50 by cell line, SK-MEL-30): > 260 nM
GI50 ([3]; SK-MEL-30 cell line, average of Rep. 1 and 2, read-out: GI50 SK-MEL-30 Average): > 260 nM
GI50 ([3]; SK-MEL-30 cell line, replicate 1, read-out: GI50 SK-MEL-30 Rep. 1): > 260 nM
GI50 ([3]; SK-MEL-30 cell line, replicate 2, read-out: GI50 SK-MEL-30 Rep. 2): > 260 nM
Concentration of (A1), Aliquot 1 ([4]; 0 h): 4620 ng/mL
Concentration of (A1), Aliquot 2 ([4]; 0 h): 4350 ng/mL
Concentration of (A1), Aliquot 3 ([4]; 0 h): 4750 ng/mL
Mean concentration of (A1) ([4]; 0 h): 4570 ng/mL
Concentration of (A1), Aliquot 1 ([4]; 0.5 h): 5150 ng/mL
Concentration of (A1), Aliquot 2 ([4]; 0.5 h): 5100 ng/mL
Concentration of (A1), Aliquot 3 ([4]; 0.5 h): 5100 ng/mL
Mean concentration of (A1) ([4]; 0.5 h): 5120 ng/mL
Concentration of (A1), Aliquot 1 ([4]; 1 h): 4980 ng/mL
Concentration of (A1), Aliquot 2 ([4]; 1 h): 4580 ng/mL
Concentration of (A1), Aliquot 3 ([4]; 1 h): 5020 ng/mL
Mean concentration of (A1) ([4]; 1 h): 4860 ng/mL
Concentration of (A1), Aliquot 1 ([4]; 2 h): 4790 ng/mL
Concentration of (A1), Aliquot 2 ([4]; 2 h): 5130 ng/mL
Concentration of (A1), Aliquot 3 ([4]; 2 h): 4680 ng/mL
Mean concentration of (A1) ([4]; 2 h): 4870 ng/mL
Concentration of (A1), Aliquot 1 ([4]; 4 h): 4140 ng/mL
Concentration of (A1), Aliquot 2 ([4]; 4 h): 4350 ng/mL
Concentration of (A1), Aliquot 3 ([4]; 4 h): 4350 ng/mL
Mean concentration of (A1) ([4]; 4 h): 4280 ng/mL
Concentration of (A1), Aliquot 1 ([4]; 8 h): 3260 ng/mL
Concentration of (A1), Aliquot 2 ([4]; 8 h): 3660 ng/mL
Concentration of (A1), Aliquot 3 ([4]; 8 h): 3600 ng/mL
Mean concentration of (A1) ([4]; 8 h): 3510 ng/mL
Concentration of (A1), Aliquot 1 ([4]; 24 h): 1350 ng/mL
Concentration of (A1), Aliquot 2 ([4]; 24 h): 1430 ng/mL
Concentration of (A1), Aliquot 3 ([4]; 24 h): 1290 ng/mL
Mean concentration of (A1) ([4]; 24 h): 1360 ng/mL
plasma stability / metabolite formation compared with human plasma [5]: Very similar results
GI50 ([6]; 92.1 (GNAQ Q209L), 96 hours of treatment, read-out: GI50 by cell line, 92.1): 0.6 nM
GI50 ([6]; 92.1 cell line, average of Rep. 1 and 2, read-out: GI50 92.1 Average): 0.6 nM
GI50 ([6]; 92.1 cell line, replicate 1, read-out: GI50 92.1 Rep. 1): 0.46 nM
GI50 ([6]; 92.1 cell line, replicate 2, read-out: GI50 92.1 Rep. 2): 0.69 nM
